Test results from the supplement of paper PMC10307832.

Assays:
Test in all cases: relative viability (nuclei count vs DMSO), 5 days (fraction); higher = more cells survive
[1] = compound: O=S(=O)(c1ccccc1)N(CC(F)(F)F)c1ccc(C(O)(C(F)(F)F)C(F)(F)F)cc1 + C[C@]1(O)C[C@@H](c2nc(-c3ccc4ccc(-c5ccccc5)nc4c3)c3c(N)nccn32)C1 [Linsitinib] (partner 1 µM)
Outline: (§1)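 Relative viability is defined as nuclei in treated wells over nuclei in vehicle wells. Duplicate plates were run and medians reported. Lung cancer cell lines in 1536-well plates were dosed by pin tool one day after seeding, with one drug or with a fixed anchor-drug dose plus five library-drug doses (not always all listed) in √10 steps, and nuclei were counted after 5 days.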

[2] = compound: O=S(=O)(c1ccccc1)N(CC(F)(F)F)c1ccc(C(O)(C(F)(F)F)C(F)(F)F)cc1 + O=C(c1cc(Cc2n[nH]c(=O)c3ccccc23)ccc1F)N1CCN(C(=O)C2CC2)CC1 [Olaparib] (partner 8 µM)
Outline: as §1

RO-3306 + Palbociclib = compound: C1=CC2=C(C=CC(=C2)C=C3C(=O)NC(=NCC4=CC=CS4)S3)N=C1 [RO-3306] + CC(=O)c1c(C)c2cnc(Nc3ccc(N4CCNCC4)cn3)nc2n(C2CCCC2)c1=O [Palbociclib] (partner 0.5 µM)
Outline: as §1

Foretinib = compound: COc1cc2c(Oc3ccc(NC(=O)C4(C(=O)Nc5ccc(F)cc5)CC4)cc3F)ccnc2cc1OCCCN1CCOCC1 [Foretinib] (anchor plate); details: 0.25 µM
Outline: (§2)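 Five library-drug doses, separated by factors of √10, were pinned into 1536-well plates holding lung cancer cell lines after an overnight stay at 37 °C. Cells were fixed, permeabilised and Hoechst-stained in one step after 5 days without medium change, then imaged at 4×. Viability compares treated-well with vehicle-well nuclei, counted in MetaXpress, as a median across plates. Passing plates had control CV below 25% and at least one doubling.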

[3] = compound: O=S(=O)(c1ccccc1)N(CC(F)(F)F)c1ccc(C(O)(C(F)(F)F)C(F)(F)F)cc1
Outline: as §2

RO-3306 = compound: C1=CC2=C(C=CC(=C2)C=C3C(=O)NC(=NCC4=CC=CS4)S3)N=C1 [RO-3306]
Outline: as §2

Cell Line | relative viability ([1]; first compound 0.8 µM) | relative viability ([1]; first compound 2.53 µM) | relative viability ([1]; first compound 8 µM) | relative viability ([2]; first compound 0.8 µM) | relative viability ([2]; first compound 2.53 µM) | relative viability ([2]; first compound 8 µM) | relative viability (RO-3306 + Palbociclib; first compound 0.01 µM) | relative viability (RO-3306 + Palbociclib; first compound 0.03162 µM) | relative viability (RO-3306 + Palbociclib; first compound 0.1 µM) | relative viability (RO-3306 + Palbociclib; first compound 0.3162 µM) | relative viability (RO-3306 + Palbociclib; first compound 1 µM) | relative viability (Foretinib) | relative viability ([3]; 0.8 µM) | relative viability ([3]; 2.53 µM) | relative viability ([3]; 8 µM) | relative viability (RO-3306; 0.01 µM) | relative viability (RO-3306; 0.03162 µM) | relative viability (RO-3306; 0.1 µM) | relative viability (RO-3306; 0.3162 µM) | relative viability (RO-3306; 1 µM)
NCI-H650 | 0.739 | 0.761 | 0.938 | 0.405 | 0.387 | 0.359 | 0.32 | 0.325 | 0.332 | 0.328 | 0.293 | 1.02 | 0.946 | 0.814 | 0.989 | 0.834 | 0.803 | 0.938 | 0.992 | 0.945
NCI-H661 | 0.688 | 0.515 | 0.561 | 0.774 | 0.779 | 0.768 | 0.421 | 0.45 | 0.394 | 0.386 | 0.383 | 0.971 | 1.04 | 0.982 | 0.971 | 0.995 | 0.951 | 0.978 | 0.963 | 1.06
NCI-H727 | 0.279 | 0.376 | 0.212 | 0.657 | 0.706 | 0.704 | 0.623 | 0.613 | 0.552 | 0.557 | 0.604 | 0.892 | 1.08 | 0.702 | 0.898 | 0.892 | 0.704 | 1.01 | 1 | 1.2
NCI-H838 | 1.13 | 1.04 | 0.97 | 0.937 | 0.736 | 0.86 | 0.228 | 0.211 | 0.254 | 0.254 | 0.193 | 1.03 | 1.12 | 0.962 | 1.02 | 1.03 | 0.908 | 0.992 | 1.07 | 0.95
NCI-H1355 | 0.762 | 0.65 | 0.598 | 0.824 | 0.737 | 0.719 | 0.421 | 0.406 | 0.405 | 0.412 | 0.38 | 0.973 | 1.05 | 0.918 | 0.884 | 1.12 | 0.907 | 1.01 | 1.01 | 0.914
NCI-H1395 | 1.23 | 1.05 | 1.21 | 0.409 | 0.458 | 0.467 | 0.696 | 0.678 | 0.58 | 0.641 | 0.558 | 1 | 0.867 | 0.894 | 0.914 | 0.895 | 0.869 | 0.729 | 0.887 | 0.707
NCI-H1437 | 1.07 | 0.859 | 0.893 | 0.598 | 0.591 | 0.597 | 0.312 | 0.316 | 0.294 | 0.317 | 0.289 | 1.24 | 0.95 | 0.877 | 0.849 | 1.03 | 0.942 | 0.926 | 1.03 | 1.08
NCI-H1651 | 1.04 | 0.901 | 1.02 | 0.178 | 0.206 | 0.176 | 0.542 | 0.456 | 0.505 | 0.538 | 0.496 | 0.763 | 1.05 | 0.965 | 0.944 | 0.978 | 0.875 | 0.994 | 1.03 | 0.934
NCI-H1666 | 0.788 | 0.703 | 0.78 | 0.757 | 0.683 | 0.679 | 0.734 | 0.631 | 0.603 | 0.616 | 0.609 | 0.977 | 0.939 | 0.925 | 0.827 | 0.962 | 0.904 | 0.938 | 0.941 | 0.885
NCI-H1734 | 1.04 | 0.883 | 0.932 | 0.703 | 0.559 | 0.469 | 0.39 | 0.321 | 0.333 | 0.429 | 0.34 | 0.84 | 1.21 | 1.01 | 0.887 | 1.01 | 0.808 | 0.912 | 0.991 | 0.9
NCI-H1755 | 1.01 | 0.98 | 0.995 | 0.918 | 0.865 | 0.849 | 0.421 | 0.474 | 0.48 | 0.417 | 0.45 | 0.915 | 1.02 | 0.982 | 0.928 | 1.02 | 1 | 0.98 | 0.985 | 1.02
NCI-H1793 | 0.836 | 0.641 | 0.66 | 0.791 | 0.574 | 0.692 | 0.222 | – | 0.279 | 0.296 | 0.388 | 0.741 | 0.758 | 0.747 | 0.785 | 1.09 | 0.694 | 0.865 | 0.993 | 1.12
NCI-H1915 | 1.14 | 1.03 | 1.06 | 0.266 | 0.263 | 0.269 | 0.54 | 0.523 | 0.518 | 0.539 | 0.538 | 1.1 | 1.06 | 0.98 | 1.08 | 1.05 | 0.944 | 0.98 | 0.992 | 0.536
NCI-H1944 | 1.25 | 1.08 | 1.13 | 0.407 | 0.39 | 0.396 | 0.336 | 0.339 | 0.34 | 0.333 | 0.333 | 0.895 | 1.1 | 0.955 | 1.07 | 1.08 | 0.911 | 0.917 | 1.01 | 0.929
NCI-H1975 | 1.09 | 1.16 | 0.88 | 1.02 | 0.762 | 0.875 | 0.614 | 0.453 | 0.581 | 0.549 | 0.553 | 0.958 | 1.09 | 0.943 | 0.95 | 1.09 | 0.804 | 0.869 | 0.997 | 0.91
NCI-H1993 | 0.7 | 0.721 | 0.806 | 1.1 | 0.843 | 0.954 | 0.636 | 0.633 | 0.611 | 0.552 | 0.583 | 0.782 | 0.987 | 0.831 | 0.711 | 0.808 | 0.719 | 0.893 | 0.849 | 0.941
NCI-H2009 | 1.15 | 1.01 | 1.03 | 0.663 | 0.685 | 0.648 | 0.216 | 0.203 | 0.18 | 0.25 | 0.203 | 1.22 | 0.977 | 0.862 | 0.891 | 1.03 | 0.955 | 0.983 | 1.02 | 1
NCI-H2023 | 0.659 | 0.564 | 0.464 | 0.601 | 0.48 | 0.441 | 0.389 | 0.376 | 0.276 | 0.443 | 0.251 | 0.893 | 1.11 | 0.885 | 0.766 | 1.18 | 0.803 | 0.901 | 1 | 0.858
NCI-H2085 | 1.07 | 0.888 | 0.844 | 0.745 | 0.686 | 0.742 | 0.448 | 0.48 | 0.506 | 0.446 | 0.471 | 1.01 | 0.967 | 0.908 | 0.929 | 0.985 | 0.936 | 0.98 | 1.05 | 0.995
NCI-H2087 | 0.921 | 0.95 | 0.961 | 0.643 | 0.609 | 0.637 | 0.226 | 0.233 | 0.171 | 0.238 | 0.197 | 1.06 | 1.11 | 0.993 | 0.909 | 1.11 | 0.918 | 1.1 | 1.04 | 0.991
NCI-H2126 | 0.783 | 0.718 | 0.739 | 0.999 | 0.878 | 0.803 | 0.326 | 0.363 | 0.369 | 0.346 | 0.373 | 1.2 | 1.1 | 1.01 | 1.02 | 1.01 | 0.916 | 0.988 | 1.03 | 0.938
NCI-H2228 | 0.615 | 0.727 | 0.391 | 0.678 | 0.578 | 0.589 | 0.753 | 0.404 | 0.622 | 0.771 | 0.433 | 0.886 | 1.08 | 0.962 | 0.937 | 1.07 | 0.96 | 1.09 | 1 | 0.696
NCI-H2347 | 1.1 | 1.01 | 0.825 | 0.566 | 0.522 | 0.572 | 0.475 | 0.438 | 0.397 | 0.387 | 0.417 | 0.902 | 1.08 | 1.01 | 1.04 | 1.19 | 0.882 | 1.05 | 1 | 1
NCI-H2405 | 1.05 | 0.913 | 0.983 | 0.846 | 0.819 | 0.777 | 0.553 | 0.45 | 0.562 | 0.518 | 0.494 | 1.01 | 1.03 | 0.987 | 0.945 | 1 | 0.949 | 0.995 | 1.02 | 0.906
NCI-H3122 | 0.988 | 0.894 | 1.11 | 0.678 | 0.599 | 0.654 | 0.188 | 0.18 | 0.19 | 0.199 | 0.209 | 0.93 | 0.99 | 0.977 | 1.08 | 1.05 | 0.99 | 1.01 | 1.05 | 1.04
PC-3 [JPC-3] | 0.984 | 0.887 | 0.899 | – | 1.09 | 1.1 | 0.54 | 0.563 | 0.567 | 0.495 | 0.569 | 1.01 | 1.06 | 1.06 | 1 | 1.03 | 0.929 | 1.03 | 1.01 | 1.06
PC-14 | 1.23 | 1.07 | 0.888 | 0.201 | 0.198 | 0.204 | 0.654 | 0.4 | 0.494 | 0.538 | 0.577 | 0.951 | 1.03 | 0.832 | 0.83 | 1.05 | 0.836 | 1.05 | 1.05 | 0.926
RERF-LC-KJ | 0.901 | 0.779 | 0.801 | 0.853 | 0.893 | 0.88 | 1.27 | 0.993 | 1.16 | 1.1 | 1.08 | 0.865 | 1.02 | 0.87 | 0.84 | 1.07 | 0.86 | 0.983 | 1.04 | 1.01
SK-LU-1 | 1.09 | 0.97 | 0.881 | 0.446 | 0.472 | 0.433 | 0.365 | 0.366 | 0.382 | 0.336 | 0.355 | 0.785 | 1.16 | 1.08 | 0.992 | 1.08 | 0.924 | 1.07 | 1.01 | 0.995
SK-MES-1 | 1.15 | 1.17 | 0.972 | 0.743 | 0.728 | 0.579 | 0.355 | 0.305 | 0.352 | 0.289 | 0.272 | 0.965 | 1.11 | 0.973 | 0.936 | 1.07 | 0.963 | 1.02 | 1.08 | 1.08
